Source: patent US6177447A (Universiteit van Amsterdam, priority 1996, dated 2001)
Entries after “also recorded” stand apart in the source; their conditions may differ. Where two headings read alike, the source gives them in different places.

Legend:
[1] = system: chitotriosidase; assay: chitotriosidase secretion by cultured macrophages; type: cell-based, human
[2] = target: T1, glycogen synthase (Rattus norvegicus, UniProt P17625); assay: glycogen synthase in rat hepatocytes; type: cell-based; conditions: at IC50 concentration for glucosylceramidase
T1 construct: endogenous in cells; host or cells: rat hepatocytes
T1 sequence (P17625 1-704): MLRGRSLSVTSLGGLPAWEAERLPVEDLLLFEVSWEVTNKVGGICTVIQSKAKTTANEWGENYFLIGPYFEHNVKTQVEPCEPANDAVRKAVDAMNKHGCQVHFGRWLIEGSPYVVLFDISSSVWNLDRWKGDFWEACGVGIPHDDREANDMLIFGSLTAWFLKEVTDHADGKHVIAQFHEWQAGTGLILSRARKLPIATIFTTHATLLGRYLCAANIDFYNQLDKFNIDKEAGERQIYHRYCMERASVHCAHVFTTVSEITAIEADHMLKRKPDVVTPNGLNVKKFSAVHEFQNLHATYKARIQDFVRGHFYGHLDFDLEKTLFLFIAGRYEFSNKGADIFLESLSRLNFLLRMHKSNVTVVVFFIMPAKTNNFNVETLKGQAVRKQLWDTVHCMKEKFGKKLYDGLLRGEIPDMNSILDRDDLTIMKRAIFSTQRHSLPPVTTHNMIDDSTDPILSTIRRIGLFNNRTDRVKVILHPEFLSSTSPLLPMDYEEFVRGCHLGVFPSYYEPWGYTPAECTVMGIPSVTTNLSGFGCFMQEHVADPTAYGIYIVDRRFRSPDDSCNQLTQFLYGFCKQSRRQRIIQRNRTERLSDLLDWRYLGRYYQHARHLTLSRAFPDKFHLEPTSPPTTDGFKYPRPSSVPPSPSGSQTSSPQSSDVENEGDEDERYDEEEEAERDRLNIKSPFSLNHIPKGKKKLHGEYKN

[3] = target: T2, lysosomal a-glucosidase (Homo sapiens, UniProt P10253); assay: lysosomal a-glucosidase in cultured melanoma cells; type: cell-based; set-up: endogenous in cells; conditions: at IC50 concentration for glucosylceramidase
[4] = target: T3, glucocerebrosidase (Homo sapiens, UniProt P04062); assay: conduritol B-epoxide inhibitable glucocerebrosidase activity in membrane fraction from human spleen; type: biochemical; conditions: membrane suspension, 4MU-b-glucoside, pH 5.2; read-out: apparent Ki GLUCOCEREBROSIDASE MEMBRANES
T3 sequence (P04062 40-536): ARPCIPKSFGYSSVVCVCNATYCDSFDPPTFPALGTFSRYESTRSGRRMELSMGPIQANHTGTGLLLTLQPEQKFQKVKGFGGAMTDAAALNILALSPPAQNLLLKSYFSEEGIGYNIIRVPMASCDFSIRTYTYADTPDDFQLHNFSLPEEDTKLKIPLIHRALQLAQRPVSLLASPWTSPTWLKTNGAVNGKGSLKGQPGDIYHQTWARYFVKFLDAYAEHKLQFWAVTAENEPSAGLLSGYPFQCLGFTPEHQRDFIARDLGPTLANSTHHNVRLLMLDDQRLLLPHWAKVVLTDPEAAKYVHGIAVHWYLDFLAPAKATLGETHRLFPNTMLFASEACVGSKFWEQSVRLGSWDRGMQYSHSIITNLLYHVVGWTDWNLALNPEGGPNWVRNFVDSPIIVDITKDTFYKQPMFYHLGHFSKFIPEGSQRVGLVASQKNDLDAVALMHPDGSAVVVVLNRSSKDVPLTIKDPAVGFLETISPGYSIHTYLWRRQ

[5] = target: T2, lysosomal a-glucosidase; assay: purified lysosomal a-glucosidase activity towards 4MU-a-glucoside; type: biochemical
[6] = target: T4, glucocerebrosidase (Ceredase) (Homo sapiens, UniProt P04062); assay: activity of soluble human placental glucocerebrosidase (Ceredase) towards 4MU-b-glucoside; type: biochemical; conditions: soluble enzyme, 0.25% sodium taurocholate, 0.1% Triton X-100, pH 5.2; read-out: apparent Ki GLUCOCEREBROSIDASE CEREDASE
T4 construct: purchased Genzyme Corp. Boston,USA; host or cells: human placenta
T4 sequence (P04062 40-536): T3 sequence (P04062 40-536)

[7] = target: T5, glucosylceramidase (Homo sapiens, UniProt Q9HCG7); assay: glucosylceramidase activity towards 4MU-b-glucoside in conduritol B-epoxide pre-treated membrane suspension from human spleen; conditions: for inhibition of glucosylceramidase, in words: comparison among N-alkyl derivatives
T5 sequence (Q9HCG7 1-927): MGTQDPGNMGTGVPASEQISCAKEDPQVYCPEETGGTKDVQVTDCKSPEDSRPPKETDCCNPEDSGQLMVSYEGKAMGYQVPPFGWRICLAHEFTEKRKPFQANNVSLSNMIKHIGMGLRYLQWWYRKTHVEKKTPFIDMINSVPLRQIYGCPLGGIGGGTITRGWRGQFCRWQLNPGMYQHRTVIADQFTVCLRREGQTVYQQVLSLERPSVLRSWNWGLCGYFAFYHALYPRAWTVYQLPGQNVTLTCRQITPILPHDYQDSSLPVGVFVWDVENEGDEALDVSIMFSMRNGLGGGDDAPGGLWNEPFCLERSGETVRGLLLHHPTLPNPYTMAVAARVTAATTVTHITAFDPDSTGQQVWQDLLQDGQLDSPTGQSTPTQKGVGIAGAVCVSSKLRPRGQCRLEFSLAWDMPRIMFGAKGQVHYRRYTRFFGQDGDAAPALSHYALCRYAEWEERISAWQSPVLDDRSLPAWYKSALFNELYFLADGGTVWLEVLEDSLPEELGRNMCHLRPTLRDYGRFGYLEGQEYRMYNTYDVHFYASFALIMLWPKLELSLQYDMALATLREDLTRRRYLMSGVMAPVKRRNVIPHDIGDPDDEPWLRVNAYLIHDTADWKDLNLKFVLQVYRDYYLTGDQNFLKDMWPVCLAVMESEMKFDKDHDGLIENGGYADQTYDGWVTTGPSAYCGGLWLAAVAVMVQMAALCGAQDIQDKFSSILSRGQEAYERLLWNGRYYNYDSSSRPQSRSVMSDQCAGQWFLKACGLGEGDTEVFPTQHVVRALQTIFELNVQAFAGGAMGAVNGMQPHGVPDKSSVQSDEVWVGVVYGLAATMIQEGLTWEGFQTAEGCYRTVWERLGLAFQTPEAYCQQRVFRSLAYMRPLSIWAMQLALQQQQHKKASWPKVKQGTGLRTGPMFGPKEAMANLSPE

[8] = target: T3, glucocerebrosidase; assay: glucocerebrosidase activity in intact melanoma cells (4MU-b-glucoside, conduritol B-epoxide sensitive); type: cell-based; set-up: the hydrolysis of 4MU-b-glucoside by cultured melanoma cells; endogenous in cells
[9] = target: T5, glucosylceramidase; assay: glucosylceramidase activity in intact melanoma cells (4MU-b-glucoside, conduritol B-epoxide insensitive); type: cell-based; set-up: endogenous in cells
[10] = target: T6, glucosylceramide synthase (Homo sapiens, UniProt Q16739); assay: glucosylceramide synthase activity in cultured macrophages with C6-NBD ceramide; type: cell-based; set-up: glucosylceramide synthase activity in cultured macrophages was also determined; endogenous in cells; host or cells: cultured human macrophages; conditions: presence of PDMP or PPMP
T6 sequence (Q16739 1-394): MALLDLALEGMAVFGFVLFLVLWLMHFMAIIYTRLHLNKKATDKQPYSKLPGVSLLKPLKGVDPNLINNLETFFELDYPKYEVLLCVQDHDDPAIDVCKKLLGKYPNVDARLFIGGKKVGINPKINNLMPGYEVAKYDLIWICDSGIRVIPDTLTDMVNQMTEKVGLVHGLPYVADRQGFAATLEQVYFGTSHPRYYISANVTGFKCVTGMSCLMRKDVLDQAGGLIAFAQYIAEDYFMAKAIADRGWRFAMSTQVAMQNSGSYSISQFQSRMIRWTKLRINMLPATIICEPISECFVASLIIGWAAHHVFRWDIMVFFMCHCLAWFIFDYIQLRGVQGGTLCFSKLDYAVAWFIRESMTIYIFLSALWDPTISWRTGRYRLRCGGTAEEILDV

[11] = 4MU-a-glucoside, pH 4.0, read-out: apparent Ki A-GLUCOSIDASE
[12] = read-out: apparent Ki GLUCOSYLCERAMIDASE, membrane suspension, 4MU-b-glucoside, pH 5.2, competitive inhibition assumed
[13] = intact melanoma cells, read-out: IC50 GLUCOCEREBROSIDASE
[14] = read-out: IC50 GLUCOSYLCERAMIDASE

| SMILES | Ki [4] [µM] | inhibition of lysosomal a-glucosidase, in words [5] | Ki [5, 11] [µM] | Ki [6] [µM] | Ki [7, 12] [µM] | IC50 [8, 13] [µM] | also measured |
| --- | --- | --- | --- | --- | --- | --- | --- |
| OCC1C(O)C(O)C(O)CN1CCCCCOCC12CC3CC(CC(C3)C1)C2 (stereo not drawn) [P21, N-(5-adamantane-1-yl-methoxy-pentyl) deoxynojirimycin] | – | – | – | – | – | – | activity at 2.5 pM ([1]; Homo sapiens, Macrophage, 96 h, 0.0025 nM, 4 days, relative to no inhibitor (100%)): 105%; activity at 50 pM ([1]; Homo sapiens, Macrophage, 96 h, 0.05 nM, 4 days, relative to no inhibitor (100%)): 72%; activity at 0.001 µM ([1]; Homo sapiens, Macrophage, 96 h, 1 nM, 4 days, relative to no inhibitor (100%)): 64%; inhibition of glycogen synthase [2]: no inhibition; inhibition of lysosomal a-glucosidase [3]: no inhibition |
| CC(C)CCC[C@@H](C)[C@H]1CC[C@H]2[C@@H]3CC[C@H]4C[C@@H](OC(=O)CCCC(=O)N5C[C@H](O)[C@@H](O)[C@H](O)[C@H]5CO)CC[C@]4(C)[C@H]3CC[C@]12C [P13] | > 100 | very poor inhibitors | > 100 | 11.2 | > 100 | – | – |
| O=C(CCCC(=O)N1C[C@H](O)[C@@H](O)[C@H](O)[C@H]1CO)OCC12CC3CC(CC(C3)C1)C2 [P4] | 3.2 | very poor inhibitors | > 100 | 19.7 | 461 | 5 | IC50 [9, 14]: 200 µM |
| CC(C)CCC[C@@H](C)[C@H]1CC[C@H]2[C@@H]3CC=C4C[C@@H](OC(=O)CCCC(=O)N5C[C@H](O)[C@@H](O)[C@H](O)[C@H]5CO)CC[C@]4(C)[C@H]3CC[C@]12C [P9] | > 100 | very poor inhibitors | > 100 | 51.6 | > 100 | – | – |
| CCCCCCCCCCCCCCCC(=O)NC(CN1CCOCC1)C(O)c1ccccc1 (stereo not drawn) [PPMP, 1-phenyl-2-hexadecanoylamino-3-morpholino-1-propanol] | – | – | – | – | – | – | inhibition of glucosylceramide synthase activity [10]: potently; effect on chitotriosidase secretion ([1]; cultured macrophages, glucosylceramide synthase inhibited): does not result in reduced; also recorded: without effect |
| O=C(CCCC(=O)N1C[C@H](O)[C@@H](O)[C@H](O)[C@H]1CO)Oc1cc2ccccc2c2ccccc12 [P16] | 0.44 | very poor inhibitors | – | 11.6 | – | – | IC50 ([8]; read-out: IC50 GLUCOCEREBROSIDASE, intact melanoma cells): > 1 µM; Ki ([5]; read-out: apparent Ki A-GLUCOSIDASE, 4MU-a-glucoside, pH 4.0): > 100 µM |
| CCCCCN1C[C@H](O)[C@@H](O)[C@H](O)[C@H]1CO [PENTYLDNJ, N-pentyl DNJ, reference compound] | 8.5 | – | – | 249 | – | > 1 | Ki [5]: 3.74 µM; Ki [7]: 0.038 µM; inhibition of glucosylceramidase, in words [7]: Optimal inhibition; IC50 ([9]; IC50 GLUCOSYLCERAMIDASE): 0.15 µM |
| O=C(CCCC(=O)N1C[C@H](O)[C@@H](O)[C@H](O)[C@H]1CO)OC12CC3CC(CC(C3)C1)C2 [P11] | 4.1 | very poor inhibitors | > 100 | 113 | 306 | 8 | IC50 [9, 14]: 200 µM |
| CCCCCCN1C[C@H](O)[C@@H](O)[C@H](O)[C@H]1CO [N-hexyl-deoxynojirimycin, reference compound] | – | – | – | – | – | – | inhibition of glucosylceramidase, in words [7]: less potent inhibitor |
| CCCCN1C[C@H](O)[C@@H](O)[C@H](O)[C@H]1CO [BUTYLDNJ, butyl-deoxynojirimycin] | – | – | – | – | – | – | activity at 0.5 µM ([1]; Homo sapiens, Macrophage, 96 h, 0.5 uM, 4 days, relative to no inhibitor (100%)): 68%; activity at 5 µM ([1]; Homo sapiens, Macrophage, 96 h, 5 uM, 4 days, relative to no inhibitor (100%)): 49%; activity at 50 µM ([1]; Homo sapiens, Macrophage, 96 h, 50 uM, 4 days, relative to no inhibitor (100%)): 28%; Ki [5]: 6.43 µM |
| CCCN1C[C@H](O)[C@@H](O)[C@H](O)[C@H]1CO [PROPYLDNJ, N-propyl DNJ, reference compound] | 332 | – | – | 546 | – | – | IC50 [8]: > 1 µM; Ki [5]: 9.24 µM; Ki [7]: 0.123 µM; IC50 ([9]; IC50 GLUCOSYLCERAMIDASE): 0.65 µM |
| CCCCC(=O)N1C[C@H](O)[C@@H](O)[C@H](O)[C@H]1CO [PENTANOYLDNJ, N-pentanoyl DNJ, reference compound] | 83 | – | 2.39 | 670 | – | > 1 | Ki [7]: 84 µM; IC50 [9, 14]: 30 µM |
